Test results as given in BigSolDB 2.1.

N=C(Nc1ccccc1)Nc1ccccc1
solubility (mole fraction)
Details	in acetone	in acetonitrile	in ethanol	in ethyl acetate	in isobutanol	in n-butanol	in n-propanol	in toluene
273.15 K	0.0433	0.00828	0.0144	0.0278	0.0124	0.018	0.0159	0.00132
275.65 K	0.0468	0.00909	0.0156	0.03	0.0135	0.0194	0.0174	0.00154
278.15 K	0.0508	0.0101	0.017	0.0325	0.0147	0.021	0.0189	0.00172
280.65 K	0.0554	0.0111	0.0184	0.0347	0.016	0.0227	0.0204	0.00195
283.15 K	0.0599	0.0122	0.0199	0.0372	0.0176	0.0245	0.0222	0.00219
285.65 K	0.0648	0.0134	0.0217	0.0401	0.0189	0.0266	0.0238	0.00249
288.15 K	0.07	0.0147	0.0235	0.0435	0.0208	0.0286	0.0259	0.00282
290.65 K	0.0751	0.0161	0.0253	0.0463	0.0224	0.0306	0.0278	0.00316
293.15 K	0.0802	0.0179	0.0273	0.0496	0.0244	0.0329	0.0301	0.00354
295.65 K	0.0862	0.0197	0.0292	0.053	0.0265	0.0352	0.0324	0.00389
298.15 K	0.0928	0.0214	0.0315	0.0566	0.0286	0.0377	0.035	0.00432
300.65 K	0.0993	0.0234	0.0337	0.0603	0.0311	0.0405	0.0379	0.00476
303.15 K	0.106	0.0254	0.0363	0.0641	0.0333	0.0431	0.0406	0.00528
305.65 K	0.113	0.0278	0.039	0.0678	0.0359	0.0462	0.0435	0.00584
308.15 K	0.12	0.0303	0.0419	0.0719	0.0384	0.0494	0.0465	0.00641
310.65 K	0.128	0.0331	0.0448	0.0763	0.0412	0.0527	0.0499	0.00709
313.15 K	0.137	0.036	0.0483	0.0814	0.0446	0.0562	0.0537	0.00771
